Measurements reported in US20100178260A1, “COMPOSITION COMPRISING A RETINOID, AN ADENOSINE-BASED NONPHOSPHATED COMPOUND, AND A SEMICRYSTALLINE POLYMER” (L'OREAL, priority 2009, published 2010).

Test system: Realskin reconstructed epidermis (filaggrin, marker for epidermal differentiation)
Assay: Epidermal differentiation (filaggrin immunolabelling) in Realskin reconstructed epidermis model
Assay type: cell-based
Conditions: incubated from D 20, analysed from D 27
Description: The effects of the combination are evaluated with respect to epidermal differentiation and proliferation in the […] reconstructed epidermis model. […] The epidermises are analysed histologically and by filaggrin (marker for epidermal differentiation) immunolabelling starting from D 27. Filaggrin, which is a late differentiation marker, is a product of degradation of profilaggrin, a high MW phosphoprotein contained in the keratohyalin granules. At the moment the keratinocyte transforms into a corneocyte, the keratohyalin granules disaggregate, and the profillagrin undergoes sequential proteolysis which releases oligomers and then monomers of filaggrin. The results arc illustrated in FIG. 1.

CC1=C(/C=C/C(C)=C/C=C/C(C)=C/CO)C(C)(C)CCC1 [retinol]
delay in differentiation (filaggrin immunolabelling) (Retinol at 250 μM): −36%

Nc1ncnc2c1ncn2[C@@H]1O[C@H](CO)[C@@H](O)[C@H]1O [adenosine]
differentiation (filaggrin immunolabelling) (Adenosine at 10 μM): +11%
